# Measurements published in patent US11814392B2, “Chromenopyridine-based compounds and methods of making and use thereof” (Rosalind Franklin University of Medicine and Science, priority 2020, dated 2023).
# pIC50: −log10 of the molar value.
# Key:
# NCI-H226 = test: NCI 60 five-dose screening, NCI-H226
# Description: (§1) The one-dose and five-dose experiments were conducted according to standard NCI protocols.
# (§2) The human tumor cell lines of the cancer screening panel are grown in RPMI 1640 medium containing 5% fetal bovine serum and 2 mM L-glutamine. For a typical screening experiment, cells are inoculated into 96 well microtiter plates in 100 μL at plating densities ranging from 5,000 to 40,000 cells/well depending on the doubling time of individual cell lines. After cell inoculation, the microtiter plates are incubated at 37° C., 5% CO2, 95% air and 100% relative humidity for 24 h prior to addition of experimental drugs.
# (§3) After 24 h, two plates of each cell line are fixed in situ with TCA, to represent a measurement of the cell population for each cell line at the time of drug addition (Tz). Experimental drugs are solubilized in dimethyl sulfoxide at 400-fold the desired final maximum test concentration and stored frozen prior to use. […]
# (§4) Following drug addition, the plates are incubated for an additional 48 h at 37° C., 5% CO2, 95% air, and 100% relative humidity. […] Bound stain is subsequently solubilized with 10 mM trizma base, and the absorbance is read on an automated plate reader at a wavelength of 515 nm. […] Using the seven absorbance measurements [time zero, (Tz), control growth, (C), and test growth in the presence of drug at the five concentration levels (Ti)], the percentage growth is calculated at each of the drug concentrations levels. Percentage growth inhibition is calculated as: [(Ti−Tz)/(C−Tz)]×100 for concentrations for which Ti>/=Tz [(Ti−Tz)/Tz]×100 for concentrations for which Ti<Tz.
# (§5) Three dose response parameters are calculated for each experimental agent. […] The drug concentration resulting in total growth inhibition (TGI) is calculated from Ti=Tz. […] Values are calculated for each of these three parameters if the level of activity is reached; however, if the effect is not reached or is exceeded, the value for that parameter is expressed as greater or less than the maximum or minimum concentration tested.
# LOX IMVI = test: NCI 60 five-dose screening, LOX IMVI; details: 48 h
# Description: (§6) The National Cancer Institute's Developmental Therapeutic preclinical 60 human cancer cell lines were used for an in vitro screen. […] The one-dose and five-dose experiments were conducted according to standard NCI protocols.
# as §2
# (§7) After 24 h, two plates of each cell line are fixed in situ with TCA, to represent a measurement of the cell population for each cell line at the time of drug addition (Tz). […]
# as §4, §5
# UO-31 = test: NCI 60 five-dose screening, UO-31
# Description: as §6, §2, §7, §4, §5
# [1] = system: 60 human cancer cell lines; test: NCI 60 cell line assay, panel summary; assay type: cell-based; details: for GI50: Homo sapiens, 60 cell
# MDA-MB-231/ATCC = test: NCI 60 five-dose screening, MDA-MB-231/ATCC
# Description: as §6, §2, §7, §4, §5
# HCC-2998 = test: NCI 60 five-dose screening, HCC-2998
# Description: as §6, §2, §7, §4, §5
# EKVX = test: NCI 60 five-dose screening, EKVX; details: 48 h
# Description: as §6, §2, §7, §4, §5
# SK-OV-3 = test: NCI 60 five-dose screening, SK-OV-3
# Description: as §1, §2, §3, §4, §5
# T-47D = test: NCI 60 five-dose screening, T-47D; details: 48 h
# Description: as §6, §2, §7, §4, §5
# K-562 = test: NCI 60 five-dose screening, K-562; details: Homo sapiens, K562, 48 h
# Description: as §6
# (§8) The human tumor cell lines of the cancer screening panel are grown in RPMI 1640 medium containing 5% fetal bovine serum and 2 mM L-glutamine. For a typical screening experiment, cells are inoculated into 96 well microtiter plates in 100 μL at plating densities ranging from 5,000 to 40,000 cells/well depending on the doubling time of individual cell lines. […]
# as §4
# (§9) Three dose response parameters are calculated for each experimental agent. […]
# TK-10 = test: NCI 60 five-dose screening, TK-10
# Description: as §6, §2, §7, §4, §5
# SF-295 = test: NCI 60 five-dose screening, SF-295
# Description: as §6, §2, §7, §4, §5
# OVCAR-8 = test: NCI 60 five-dose screening, OVCAR-8
# Description: as §1, §2, §3, §4, §5
# MCF7 = test: NCI 60 five-dose screening, MCF7
# Description: as §6, §2, §7, §4, §5
# UACC-62 = test: NCI 60 five-dose screening, UACC-62
# Description: as §6, §2, §7, §4, §5
# ACHN = test: NCI 60 five-dose screening, ACHN; details: 48 h
# Description: as §1, §2, §3, §4, §5
# KM12 = test: NCI 60 five-dose screening, KM12
# Description: as §6, §2, §7, §4, §5
# MDA-MB-468 = test: NCI 60 five-dose screening, MDA-MB-468; assay type: cell-based, human
# NCI-H23 = test: NCI 60 five-dose screening, NCI-H23
# Description: as §1, §2, §3, §4, §5
# SR = test: NCI 60 five-dose screening, SR; details: Homo sapiens, 48 h
# Description: as §6, §8, §4, §9
# HT29 = test: NCI 60 five-dose screening, HT29
# Description: as §6, §2, §7, §4, §5
# HCT-15 = test: NCI 60 five-dose screening, HCT-15
# Description: as §6, §2, §7, §4, §5
# PMCT = biological target: T1, PMCT (Homo sapiens, UniProt Q86YT5); test: PMCT inhibition, citrate transport assay of whole HEK293T cells; assay type: cell-based
# T1 construct: expressed in transfected cells; host or cells: HEK293T cells transfected with pcDNA3.1(+)-SLC13A5 using PEI
# T1 sequence (Q86YT5 whole entry): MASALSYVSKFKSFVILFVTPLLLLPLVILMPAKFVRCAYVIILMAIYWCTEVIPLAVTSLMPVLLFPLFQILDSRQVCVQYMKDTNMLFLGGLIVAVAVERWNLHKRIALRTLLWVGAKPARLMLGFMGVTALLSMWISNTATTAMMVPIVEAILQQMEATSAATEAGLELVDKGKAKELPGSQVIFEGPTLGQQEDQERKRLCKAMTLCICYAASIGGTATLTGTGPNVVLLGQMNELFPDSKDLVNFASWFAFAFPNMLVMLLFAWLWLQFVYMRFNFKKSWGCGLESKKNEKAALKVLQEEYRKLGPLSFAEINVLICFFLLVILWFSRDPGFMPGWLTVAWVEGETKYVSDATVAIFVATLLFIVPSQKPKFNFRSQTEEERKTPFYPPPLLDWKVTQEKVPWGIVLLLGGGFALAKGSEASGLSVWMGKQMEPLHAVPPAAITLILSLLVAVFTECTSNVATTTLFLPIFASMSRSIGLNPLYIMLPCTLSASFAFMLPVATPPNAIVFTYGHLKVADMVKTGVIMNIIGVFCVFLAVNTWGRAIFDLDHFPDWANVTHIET
# NCI-H522 = test: NCI 60 five-dose screening, NCI-H522
# Description: as §6, §2, §7, §4, §5
# CCRF-CEM = test: NCI 60 five-dose screening, CCRF-CEM; details: Homo sapiens, 48 h
# Description: as §6, §8, §4, §9
smiles,measurement,setting,value
"COc1ccc(SC2c3cc(OC)c(OC)cc3Oc3nc(N)c(C#N)c(N)c32)cc1 (stereo not shown) [Compound 1, 2,4-diamino-7,8-dimethoxy-5-((4-methoxyphenyl)thio)-5H-chromeno[2,3-b]pyridine-3-carbonitrile]",GI50,"NCI-H226; Homo sapiens, NCI-H226, 48 h",1370 nM
same,CC50,"NCI-H226; Homo sapiens, NCI-H226, 48 h, read-out: LC50",5230 nM
same,TGI,"NCI-H226; NCI-H226 (Non-small cell Lung), five-dose, 48 h",2680 nM
same,GI50,"LOX IMVI; Homo sapiens, LOX IMVI",580 nM
same,CC50,"LOX IMVI; Homo sapiens, LOX IMVI, read-out: LC50",4370 nM
same,TGI,"LOX IMVI; LOX IMVI (Melanoma), five-dose",1860 nM
same,GI50,"UO-31; Homo sapiens, UO-31, 48 h",1340 nM
same,CC50,"UO-31; Homo sapiens, UO-31, 48 h, read-out: LC50",5110 nM
same,TGI,"UO-31; UO-31 (Renal Cancer), five-dose, 48 h",2610 nM
same,GI50,"[1]; at least one studied cell line of each of leukemia, colon cancer, CNS cancer, melanoma, ovarian cancer, renal cancer, and breast cancer",< 1000 nM
same,GI50,[1]; every leukemia cell line studied,< 500 nM
same,anti-proliferative activity,"[1]; nine major cancer cell lines, initial single dose and five dose screening (FIG. 2, FIG. 3)",anti-proliferative activity
same,GI50,"MDA-MB-231/ATCC; Homo sapiens, MDA-MB-231, 48 h",1430 nM
same,CC50,"MDA-MB-231/ATCC; Homo sapiens, MDA-MB-231, 48 h, read-out: LC50",5510 nM
same,TGI,"MDA-MB-231/ATCC; MDA-MB-231/ATCC (Breast Cancer), five-dose, 48 h",2810 nM
same,TGI,"HCC-2998; HCC-2998 (Colon Cancer), five-dose, 48 h",3120 nM
same,GI50,"HCC-2998; Homo sapiens, HCC 2998, 48 h",1720 nM
same,CC50,"HCC-2998; Homo sapiens, HCC 2998, 48 h, read-out: LC50",5670 nM
same,TGI,"EKVX; EKVX (Non-small cell Lung), five-dose",3340 nM
same,GI50,"EKVX; Homo sapiens, EKVX",1740 nM
same,CC50,"EKVX; Homo sapiens, EKVX, read-out: LC50",6420 nM
same,GI50,"SK-OV-3; Homo sapiens, SK-OV-3, 48 h",1810 nM
same,CC50,"SK-OV-3; Homo sapiens, SK-OV-3, 48 h, read-out: LC50",5660 nM
same,TGI,"SK-OV-3; SK-OV-3 (Ovarian Cancer), five-dose, 48 h",3200 nM
same,GI50,"T-47D; Homo sapiens, T47D",1300 nM
same,CC50,"T-47D; Homo sapiens, T47D, read-out: LC50",8430 nM
same,TGI,"T-47D; T-47D (Breast Cancer), five-dose",3310 nM
same,GI50,K-562,440 nM
same,CC50,K-562; read-out: LC50,> 100000 nM
same,GI50,"TK-10; Homo sapiens, TK-10, 48 h",1630 nM
same,CC50,"TK-10; Homo sapiens, TK-10, 48 h, read-out: LC50",5550 nM
same,TGI,"TK-10; TK-10 (Renal Cancer), five-dose, 48 h",3010 nM
same,GI50,"SF-295; Homo sapiens, SF-295, 48 h",1600 nM
same,CC50,"SF-295; Homo sapiens, SF-295, 48 h, read-out: LC50",5480 nM
same,TGI,"SF-295; SF-295 (CNS Cancer), five-dose, 48 h",2960 nM
same,GI50,"OVCAR-8; Homo sapiens, OVCAR-8, 48 h",1690 nM
same,CC50,"OVCAR-8; Homo sapiens, OVCAR-8, 48 h, read-out: LC50",5980 nM
same,TGI,"OVCAR-8; OVCAR-8 (Ovarian Cancer), five-dose, 48 h",3180 nM
same,GI50,"MCF7; Homo sapiens, MCF7, 48 h",450 nM
same,CC50,"MCF7; Homo sapiens, MCF7, 48 h, read-out: LC50",8470 nM
same,TGI,"MCF7; MCF7 (Breast Cancer), five-dose, 48 h",2100 nM
same,GI50,"UACC-62; Homo sapiens, UACC-62, 48 h",440 nM
same,CC50,"UACC-62; Homo sapiens, UACC-62, 48 h, read-out: LC50",4300 nM
same,TGI,"UACC-62; UACC-62 (Melanoma), five-dose, 48 h",1730 nM
same,TGI,"ACHN; ACHN (Renal Cancer), five-dose",3120 nM
same,GI50,"ACHN; Homo sapiens, ACHN",1740 nM
same,CC50,"ACHN; Homo sapiens, ACHN, read-out: LC50",5580 nM
same,GI50,"KM12; Homo sapiens, KM12, 48 h",1530 nM
same,CC50,"KM12; Homo sapiens, KM12, 48 h, read-out: LC50",6060 nM
same,TGI,"KM12; KM12 (Colon Cancer), five-dose, 48 h",3050 nM
same,CC50,"MDA-MB-468; Homo sapiens, MDA-MB-468, 48 h, read-out: LC50",5620 nM
same,GI50,"MDA-MB-468; Homo sapiens, MDA-MB-468 (Breast Cancer), five-dose, 48 h",320 nM
same,TGI,"MDA-MB-468; MDA-MB-468 (Breast Cancer), five-dose, 48 h",1530 nM
same,GI50,"NCI-H23; Homo sapiens, NCI-H23, 48 h",1450 nM
same,CC50,"NCI-H23; Homo sapiens, NCI-H23, 48 h, read-out: LC50",6250 nM
same,TGI,"NCI-H23; NCI-H23 (Non-small cell Lung), five-dose, 48 h",3010 nM
same,GI50,SR,270 nM
same,CC50,SR; read-out: LC50,> 100000 nM
same,TGI,"HT29; HT29 (Colon Cancer), five-dose, 48 h",5040 nM
same,GI50,"HT29; Homo sapiens, HT-29, 48 h",2160 nM
same,CC50,"HT29; Homo sapiens, HT-29, 48 h, read-out: LC50",> 100000 nM
same,TGI,"HCT-15; HCT-15 (Colon Cancer), five-dose, 48 h",2230 nM
same,GI50,"HCT-15; Homo sapiens, HCT-15, 48 h",970 nM
same,CC50,"HCT-15; Homo sapiens, HCT-15, 48 h, read-out: LC50",5020 nM
same,pIC50,PMCT; HEK293T cells,5.01
same,dose-dependence of PMCT inhibition,"PMCT; HEK293T cells, even at moderate concentrations (FIG. 1)",dose-dependent inhibition
same,inhibition at 5 µM,"PMCT; HEK-293T, read-out: PMCT Inhibition, Inhibitor Concentration 5 μM, HEK293T cells",50.1%
same,inhibition at 20 µM,"PMCT; HEK-293T, read-out: PMCT Inhibition, Inhibitor Concentration 20 μM, HEK293T cells",75.6%
same,inhibition at 40 µM,"PMCT; HEK-293T, read-out: PMCT Inhibition, Inhibitor Concentration 40 μM, HEK293T cells",50.2%
same,inhibition at 200 µM,"PMCT; HEK-293T, read-out: PMCT Inhibition, Inhibitor Concentration 200 μM, HEK293T cells",32.1%
same,inhibition at 1000 µM,"PMCT; HEK-293T, read-out: PMCT Inhibition, Inhibitor Concentration 1000 μM, HEK293T cells",62.8%
same,GI50,"NCI-H522; Homo sapiens, NCI-H522, 48 h",1370 nM
same,CC50,"NCI-H522; Homo sapiens, NCI-H522, 48 h, read-out: LC50",5600 nM
same,TGI,"NCI-H522; NCI-H522 (Non-small cell Lung), five-dose, 48 h",2770 nM
same,GI50,CCRF-CEM,310 nM
same,CC50,CCRF-CEM; read-out: LC50,> 100000 nM
